{"source": "patent US10660959B2", "about": "“Formulations of a PI3K/mTOR-inhibitor for intravenous administration” (Pfizer Inc., priority 2014, dated 2020)", "format_in_all_cases": "physicochemical", "key": {"[1]": {"assay": "Water solubility of free base", "conditions": "for aqueous solution formulation at therapeutic dosage levels"}, "[2]": {"assay": "Visual observation of solution clarity (light box per European Pharmacopoeia Method 2.9.20, black and white background, Tyndall beam)", "text": "A clear solution is defined as a visually clear solution essentially free from any visible particulates that can be observed on a visual inspection. Generally, if any particulate matter is observed, the formulation is not suitable for intravenous administration and should not be utilised as occlusion of blood vessels may occur. Accordingly, in view of the qualitative nature of the visual test, the term “essentially free from any visible particulates” is usually applied when no visible particulate matter is observed.\nThe visual inspection can be conducted in accordance with the method defined in European Pharmacopoeia Method 2.9.20 entitled “Particulate contamination: visible particles”. […]\nBy this method the solution in the vial was visually inspected in a Verivide DCAC60 (trade mark) light cabinet using a light meter reading of 3250 lux against a matt black panel and a white panel.\nAt the end of the 5 day period the pH of each sample was measured and a visual observation of each sample was made using a light box as described in European Pharmacopoeia Method 2.9.20 (above), inspecting the samples against a black and a white background. […]\nThese samples were visually assessed made using a light box as described in European Pharmacopoeia Method 2.9.20 (above), inspecting the samples against a black and a white background. […] The pH was also measured. […]"}, "[3]": {"assay": "pH measurement of aqueous formulation samples", "conditions": "for pH after dilution: roller bed overnight; for pH Check after 6 Days / pH Check after 48 hours: Investigation 5; for pH: Investigation 6, 15 hours", "method": "(§1) At the end of the 5 day period the pH of each sample was measured and a visual observation of each sample was made using a light box as described in European Pharmacopoeia Method 2.9.20 (above), inspecting the samples against a black and a white background. The sample was also tested by illumination using a narrow (Tyndall) beam light source and then visually inspected from a direction perpendicular to the light beam in order to identify undissolved solid particles.\nas §1, with “specified rolling” for “5 day”\nas §1, with “These samples were visually assessed” for “At the end of the 5 day period the pH of each sample was measured and a visual observation of each sample was”, “particles. The pH was also measured.” for “particles.”\nas §1, with “These samples were visually assessed” for “At the end of the 5 day period the pH of each sample was measured and a visual observation of each sample was made”, “particles. The pH was also measured.” for “particles.”\nThe diluted samples were placed on a roller bed overnight in order to reach equilibrium. The pH was also measured.\nThese samples were visually assessed using a light box as described in European Pharmacopoeia method 2.9.20 (above), inspecting the samples against a black and a white background. The sample was also tested by illumination using a narrow (Tyndall) beam light source and then visually inspected from a direction perpendicular to the light beam in order to identify undissolved solid particles. […] The pH was also measured."}, "[4]": {"assay": "Chemical and physical stability of crystalline free base on storage", "conditions": "crystalline form, 25° C. and 60% Relative Humidity"}, "[5]": {"conditions": "Investigation 4, 3 mg/mL with 6.8 mole equivalents orthophosphoric acid (33.3 mM), roller bed room temperature ca. 19 hours, N = 1-3"}}, "note": "Where “and” joins values, the source holds several entries; their conditions need not be identical. Identical values can stand only once."}
{"molecule": "CN(C)C1CCN(C(=O)c2ccc(NC(=O)Nc3ccc(-c4nc(N5CCOCC5)nc(N5CCOCC5)n4)cc3)cc2)CC1", "note": "[1-(4-{[4-(Dimethylamino)piperidin-1-yl]carbonyl}phenyl)-3-[4-(4,6-dimorpholin-4-yl-1,3,5-triazin-2-yl)phenyl]urea]", "values": [{"measurement": "water solubility", "setting": "[1]", "result": "insufficiently water soluble"}, {"measurement": "Visual assessment", "setting": "[2]; [5]", "result": "Clear"}, {"measurement": "Visual assessment", "setting": "[2]; Investigation 5, 3, 4 and 5 mg/mL in 33.3 mM acetic acid buffer pH 3.35, roller bed room temperature, 24 hour, 48 hour, 72 hour and 6 day periods", "result": "does not produce a clear solution"}, {"measurement": "Final pH", "setting": "[3]; [5]", "result": "2.15 and 2.17"}, {"measurement": "pH after dilution", "setting": "[3]; Investigation 4, orthophosphoric acid samples diluted to 0.05 mg/mL", "result": "3.47 and 3.48 and 3.49"}, {"measurement": "pH after dilution", "setting": "[3]; Investigation 4, orthophosphoric acid samples diluted to 0.1 mg/mL", "result": "3.21 and 3.20"}, {"measurement": "pH after dilution", "setting": "[3]; Investigation 4, orthophosphoric acid samples diluted to 0.5 mg/mL", "result": "2.64 and 2.63"}, {"measurement": "pH Check after 6 Days", "setting": "[3]; 3 mg/mL in 33.3 mM acetic acid", "result": "3.99 and 3.95 and 3.96"}, {"measurement": "pH Check after 48 hours", "setting": "[3]; 3 mg/mL in 33.3 mM acetic acid", "result": "3.89 and 3.90"}, {"measurement": "pH Check after 6 Days", "setting": "[3]; 4 mg/mL in 33.3 mM acetic acid", "result": "4.03 and 4.04"}, {"measurement": "pH Check after 48 hours", "setting": "[3]; 4 mg/mL in 33.3 mM acetic acid", "result": "3.94 and 3.95"}, {"measurement": "pH Check after 6 Days", "setting": "[3]; 5 mg/mL in 33.3 mM acetic acid", "result": "4.18 and 4.19"}, {"measurement": "pH Check after 48 hours", "setting": "[3]; 5 mg/mL in 33.3 mM acetic acid", "result": "3.99 and 4.00"}, {"measurement": "pH", "setting": "[3]; 3 mg/mL, ca. 6.8 mole equivalents orthophosphoric acid", "result": "2.02 and 2.03 and 2.05"}, {"measurement": "pH", "setting": "[3]; 3.5 mg/mL, ca. 5.9 mole equivalents orthophosphoric acid", "result": "2.09 and 2.07"}, {"measurement": "chemically and physically stable (duration)", "setting": "[4]", "result": "up to 3 years"}]}
